The values below come from publication PMC7365701 (Journal of medicinal chemistry, 2020).

Data set [1] concerns retinal vascular leakage in diabetic rats. As to the kind of experiment: STZ-induced diabetic rat model, retinal vascular permeability. It is filed as in vivo, Brown Norway rat. The conditions noted are these: daily i.p. for 28 days.
For data set [2], the target named is human ether-á-go-go (hERG) potassium channel (Homo sapiens, UniProt Q12809). The data set is described as follows: hERG automated whole cell patch-clamp. It is filed as cell-based. Particulars: tested at 0.1, 1 and 10 μM; ≥50% inhibition at 10 μM flagged as toxic.
Sequence of human ether-á-go-go (hERG) potassium channel (Q12809 whole entry): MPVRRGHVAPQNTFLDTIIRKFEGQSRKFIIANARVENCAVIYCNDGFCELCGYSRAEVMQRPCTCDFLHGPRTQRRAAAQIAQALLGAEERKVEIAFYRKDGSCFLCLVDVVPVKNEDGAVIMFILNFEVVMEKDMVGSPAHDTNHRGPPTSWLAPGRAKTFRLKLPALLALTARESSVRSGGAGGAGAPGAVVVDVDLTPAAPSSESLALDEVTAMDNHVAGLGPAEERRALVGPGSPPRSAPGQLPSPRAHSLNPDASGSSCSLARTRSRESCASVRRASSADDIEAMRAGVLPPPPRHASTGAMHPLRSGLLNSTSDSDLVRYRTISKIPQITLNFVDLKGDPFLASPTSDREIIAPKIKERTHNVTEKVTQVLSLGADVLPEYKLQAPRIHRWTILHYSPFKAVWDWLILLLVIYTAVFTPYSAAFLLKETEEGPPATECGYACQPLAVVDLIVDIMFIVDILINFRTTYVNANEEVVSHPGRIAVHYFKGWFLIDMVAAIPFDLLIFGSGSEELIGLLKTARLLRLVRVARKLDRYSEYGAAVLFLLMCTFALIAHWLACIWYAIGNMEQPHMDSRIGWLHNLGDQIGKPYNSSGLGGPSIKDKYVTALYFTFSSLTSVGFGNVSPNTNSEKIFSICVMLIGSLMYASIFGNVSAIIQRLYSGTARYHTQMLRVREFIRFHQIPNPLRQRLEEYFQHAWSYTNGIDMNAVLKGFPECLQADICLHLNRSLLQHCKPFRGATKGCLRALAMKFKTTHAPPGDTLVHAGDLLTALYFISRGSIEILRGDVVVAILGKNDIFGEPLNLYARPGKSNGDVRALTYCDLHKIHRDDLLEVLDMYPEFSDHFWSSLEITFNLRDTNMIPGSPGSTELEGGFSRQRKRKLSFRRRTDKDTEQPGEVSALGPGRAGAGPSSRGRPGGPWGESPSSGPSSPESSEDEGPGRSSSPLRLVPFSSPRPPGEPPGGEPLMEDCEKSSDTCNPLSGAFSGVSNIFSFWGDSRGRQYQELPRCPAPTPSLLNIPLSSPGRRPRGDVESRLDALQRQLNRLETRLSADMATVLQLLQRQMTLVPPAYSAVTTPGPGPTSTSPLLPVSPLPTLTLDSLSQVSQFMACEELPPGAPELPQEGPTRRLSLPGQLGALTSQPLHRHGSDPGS
In data set [3] the target is T1, human PPARα (hPPARα) (Homo sapiens, UniProt Q07869).
T1 sequence (Q07869 1-468): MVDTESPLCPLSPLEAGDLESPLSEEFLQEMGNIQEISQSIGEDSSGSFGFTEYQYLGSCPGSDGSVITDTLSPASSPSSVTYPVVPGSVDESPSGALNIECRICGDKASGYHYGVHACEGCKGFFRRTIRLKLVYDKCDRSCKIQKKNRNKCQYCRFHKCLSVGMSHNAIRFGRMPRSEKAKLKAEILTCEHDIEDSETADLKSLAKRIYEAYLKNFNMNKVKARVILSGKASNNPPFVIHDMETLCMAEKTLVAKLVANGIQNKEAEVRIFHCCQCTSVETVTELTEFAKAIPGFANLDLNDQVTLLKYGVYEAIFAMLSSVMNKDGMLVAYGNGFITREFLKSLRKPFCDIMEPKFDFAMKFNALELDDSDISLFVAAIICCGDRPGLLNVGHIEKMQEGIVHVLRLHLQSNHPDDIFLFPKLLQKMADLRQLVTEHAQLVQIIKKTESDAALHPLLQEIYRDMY

Data set [4] addresses T2, Ligand Binding Domain of PPARα (Homo sapiens, UniProt Q07869).
T2 sequence (Q07869 239-466 limits assumed): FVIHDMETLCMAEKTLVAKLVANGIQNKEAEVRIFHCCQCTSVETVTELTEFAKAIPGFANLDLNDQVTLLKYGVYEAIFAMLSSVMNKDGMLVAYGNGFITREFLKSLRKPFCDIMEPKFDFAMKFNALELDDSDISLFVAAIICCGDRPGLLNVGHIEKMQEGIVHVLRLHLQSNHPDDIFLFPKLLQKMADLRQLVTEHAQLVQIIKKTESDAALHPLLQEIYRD
As to the kind of experiment: Isothermal titration calorimetry. Particulars: 4b vs 4a; 4u vs 4b. For orientation: Isothermal titration calorimetry measures the heat released or taken up as one component is titrated into another.

A short description of data set [5]: Stability in human liver microsomes. The data set is classed as in vitro ADME. Particulars: compared with 4a (A91). Background: Liver microsomes are vesicles of endoplasmic reticulum, rich in cytochrome P450 enzymes.
For data set [6], the target named is T1, human PPARα (hPPARα). As to the kind of experiment: cell-based. The conditions noted are these: EC50 hPPARα (cellular potency), luciferase reporter. For orientation: A reporter such as luciferase makes a cellular process visible.
Data set [7] relates to cytochrome P450 isoforms (1A, 2C9, 2C19, 2D6, and 3A). The data set is described as follows: Time-dependent CYP inhibition in pooled human liver microsomes. It is filed as in vitro ADME. Particulars: 10 μM, pre-incubation ± NADPH.
Data set [8] can be described thus: Stability in rat liver microsomes. It is filed as in vitro ADME. The conditions noted are these: compared with 4a (A91).
The next data set concerns the target T3, PPARα (Homo sapiens, UniProt Q07869).
T3 sequence (Q07869 1-468): T1 sequence (Q07869 1-468)
As to the kind of experiment: Cellular thermal shift assay. The conditions noted are these: MIO-M1 cells, 45.5 °C. The data set is classed as cell-based.

The structures appear in SMILES notation.

For `COc1ccc(COc2ccc(CNc3cccc(C(=O)O)c3)cc2)cc1` [Compound 4a, 3-((4-((4-methoxybenzyl)oxy)benzyl)amino)benzoic acid], in data set [1], the “hepatomegaly (liver phenotype)” value was “lack signs of hepatomegaly”. In addition, the retinal vascular leakage entry in [1] (Evans blue tracer) is listed as “reduces retinal vascular leakage in diabetic rats to the range of the non-diabetic cohort”. Moreover, in data set [2], the “hERG channel liability” value is “low potency”.

The compound `O=C(O)c1cccc(NCc2ccc(OCc3ccc(F)cc3F)cc2)c1` [Compound 4j, 3-((4-((2,4-difluorobenzyl)oxy)benzyl)amino)benzoic acid] gave an SI at human PPARα (hPPARα) [3] (SI = EC50 (PPARγ or PPARδ) / EC50 (PPARα)) greater than 175. Besides, the “selectivity for hPPARα over other PPAR isoforms” value at human PPARα (hPPARα) [3] (over hPPARγ and hPPARδ, no agonism up to 100 μM) was greater than 175 fold.

For `O=C(O)c1cc(Cl)cc(NCc2ccc(OCc3ccc(F)cc3)cc2)c1` [Compound 4r, 3-chloro-5-((4-((4-fluorobenzyl)oxy)benzyl)amino)benzoic acid], the “Ratio (5/50)” value on human PPARα (hPPARα) [3] (ratio of relative light unit (RLU) signal at 5 μM and 50 μM compound) was 0.11.

For orientation: EC50 means the midpoint of the concentration-response curve. Higher therefore signals lower potency in that assay. Turning to `Cc1cc(CNc2cccc(C(=O)O)c2)ccc1OCc1ccc(F)cc1` [Compound 4u, 3-((4-((4-fluorobenzyl)oxy)-3-methylbenzyl)amino)benzoic acid], the “hERG channel liability” value in [2] was “not considered a hERG liability”. Also, the “improvement in binding affinity” value in data set [4] was ~ 38 fold. Besides, the “stability in liver microsomes” value in data set [5] and in data set [8] was “significantly improved stability” throughout. For the same compound, the EC50 at human PPARα (hPPARα) [6] is roughly 40 nM. In addition, the “time-dependent (irreversible) inhibition of major CYP450 isoforms” value in [7] was “no signs of irreversible inhibition”. Besides, the “rescue of PPARα stability” value on PPARα is recorded as 3 fold.
